Structures are written as SMILES.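 Assay format: 96-well plates, 48-hour exposure. GI50 = concentration required for 50% inhibition of growth.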 Active and inactive are the calls of the source. Rule as the data show it: active = GI50 up to about 1.1 µM and inactive = higher. Bounds are passed on as bounds.

Holding throughout (test): NCI tumour cell line growth inhibition, 48 h
Assay [1] has as its system 786-0.
Assay [2] relates to BT-549.
The subject of assay [3] is CAKI-1.
For assay [4], the system named is HL-60.
For assay [5], the system named is HT-29.
Assay [6] relates to K562.
Assay [7] has as its system KM12.
The subject of assay [8] is LOX IMVI.
Assay [9] has as its system M14.
For assay [10], the system named is MDA-MB-231.
Assay [11] concerns MDA-MB-435.
In assay [12] the test system is MOLT-4.
The test system of assay [13] is Malme-3M.
Assay [14] relates to NCI/ADR-RES.
Assay [15] deals with OVCAR-3.
For assay [16], the system named is SF-268.
In assay [17] the test system is SF-295.
The test system of assay [18] is SK-MEL-2.
For assay [19], the system named is SK-MEL-5.
Assay [20] has as its system SR.

Turning to `NC(=O)C1CCCN1Cc1ccc2c(c1)OCO2` (stereo not given), the GI50 in assay [1], in assay [2], in [3], in assay [4], in [5] and in [6] was > 100 µM (inactive) in each case. For the same compound, the GI50 in assay [7], in assay [8], in [9], in assay [10], in assay [11] and in assay [12] was > 100 µM (inactive) each time. The GI50 in assay [13], in assay [14], in assay [15], in assay [16], in [17] and in assay [18] was > 100 µM (inactive) throughout. Also, the GI50 in [19] and in assay [20] was > 100 µM (inactive) each time.
Take `C=C1CC[C@H](O)C(C)(C)[C@@H]1CC/C(C)=C/CC/C=C(\C)CC/C=C(\C)CCC=C(C)C`: the GI50 in assay [1] is > 100 µM (inactive); in assay [2], > 100 µM (inactive); in assay [3], > 100 µM (inactive); in assay [4], 13.5 µM (inactive); in [5], > 100 µM (inactive); in [6], > 100 µM (inactive). Besides, the GI50 in assay [7], in assay [8], in [9], in [10], in [11] and in [12] was > 100 µM (inactive) each time. Further, the GI50 is > 100 µM (inactive) in assay [13]; > 100 µM (inactive) in assay [14]; > 100 µM (inactive) in [15]; > 100 µM (inactive) in assay [16]; > 100 µM (inactive) in assay [17]; 46.7 µM (inactive) in assay [18]. Moreover, the GI50 is 54 µM (inactive) in assay [19] and 59.6 µM (inactive) in [20].
With `CCC(C)C1NC(=O)C(NC(=O)c2c3nc4c(C(=O)NC5C(=O)NC(C(C)CC)C(=O)N6CCCC6C(=O)N(C)CC(=O)N(C)C(C(C)C)C(=O)OC5C)ccc(C)c4oc-3c(C)c(=O)c2O)C(C)OC(=O)C(C(C)C)N(C)C(=O)CN(C)C(=O)C2CCCN2C1=O` (stereo not given), the GI50 is 3.37 µM (inactive) in assay [1]; 5.81 µM (inactive) in assay [2]; 10.3 µM (inactive) in assay [3]; 2.81 µM (inactive) in assay [4]; 1.06 µM (active) in [5]; 0.74 µM (active) in assay [6]. Besides, the GI50 in [7] is 1.63 µM (inactive); in assay [8], 0.532 µM (active); in assay [9], 4.2 µM (inactive); in assay [10], 1.25 µM (inactive); in [11] it was 4.92 µM (inactive); in assay [12], 1.01 µM (active). The GI50 was 1.98 µM (inactive) in assay [13]; 21.9 µM (inactive) in assay [14]; 3.24 µM (inactive) in assay [15]; 3.77 µM (inactive) in assay [16]; 3.61 µM (inactive) in [17]; 2.07 µM (inactive) in [18]. Besides, the GI50 in assay [19] was 4.21 µM (inactive); in [20], 0.119 µM (active).
For `CN(N)C(=O)NCCCl`, the GI50 in assay [1], in assay [2], in [3], in assay [4], in assay [5] and in [6] was > 100 µM (inactive) throughout. Also, the GI50 in [7] was > 100 µM (inactive); in assay [8], > 100 µM (inactive); in assay [9], > 100 µM (inactive); in assay [10] it was 1.3 µM (inactive); in assay [11], > 100 µM (inactive); in assay [12], > 100 µM (inactive). Besides, the GI50 was > 100 µM (inactive) in [13]; 0.021 µM (active) in [14]; > 100 µM (inactive) in assay [15]; > 100 µM (inactive) in assay [16]; > 100 µM (inactive) in assay [17]; > 100 µM (inactive) in assay [18]. Moreover, the GI50 in assay [19] and in assay [20] was > 100 µM (inactive) in each case.
As to `Cc1cc(=O)c2cc(/N=C/c3ccc([N+](=O)[O-])o3)ccc2o1`, the GI50 was 64.4 µM (inactive) in assay [1]; 72.6 µM (inactive) in [2]; > 100 µM (inactive) in assay [3]; 57.9 µM (inactive) in [4]; > 100 µM (inactive) in assay [5]; 33.7 µM (inactive) in assay [6]. The GI50 in assay [7] was > 100 µM (inactive); in assay [8] it was 42.7 µM (inactive); in assay [9], > 100 µM (inactive); in assay [10], > 100 µM (inactive); in assay [11], 44.9 µM (inactive); in [12], 37.4 µM (inactive). The GI50 in assay [13] was 30 µM (inactive); in assay [14] it was > 100 µM (inactive); in assay [15] it was > 100 µM (inactive); in [16], 88.7 µM (inactive); in [17], > 100 µM (inactive); in assay [18], > 100 µM (inactive). Besides, the values for the GI50 in assay [19] and in [20] were > 100 µM (inactive) and 32.7 µM (inactive), respectively.
Take `CC(=O)c1c(SCCN2CCCC2)n(-c2ccccc2)c(=S)n(-c2ccccc2)c1=O`: the GI50 in assay [1] was 1.6 µM (inactive); in assay [2] it was 14.5 µM (inactive); in assay [3], 4.34 µM (inactive); in assay [4], 3.55 µM (inactive); in assay [5], 6.62 µM (inactive); in assay [6], 2.72 µM (inactive). Further, the GI50 was 23.2 µM (inactive) in assay [7]; 2.49 µM (inactive) in assay [8]; 2.39 µM (inactive) in assay [9]; 8.83 µM (inactive) in [10]; 5.9 µM (inactive) in assay [11]; 2.41 µM (inactive) in assay [12]. Further, the GI50 in assay [13] is 3.85 µM (inactive); in assay [14] it was 26.9 µM (inactive); in assay [15], 2.5 µM (inactive); in [16], 16.4 µM (inactive); in [17] it was > 76 µM (inactive); in [18] it was 21.6 µM (inactive). Further, the values for the GI50 in [19] and in assay [20] were 8.55 µM (inactive) and 2.28 µM (inactive), respectively.
With `O=C(O)c1ccccc1/C=N\N=C1NCCN1`, the GI50 in assay [1] was > 100 µM (inactive); in assay [2], 49.9 µM (inactive); in assay [3] it was > 100 µM (inactive); in [4], > 100 µM (inactive); in [5] it was > 100 µM (inactive); in assay [6], > 100 µM (inactive). Besides, the GI50 in assay [7], in [8], in assay [9], in [10], in [11] and in [12] was > 100 µM (inactive) each time. Also, the GI50 in assay [13], in [14], in assay [15], in [16], in [17] and in assay [18] was > 100 µM (inactive) each time. Besides, the GI50 in assay [19] and in [20] was > 100 µM (inactive) throughout.
On to `CCOc1cc2c(cc1O)CC[C@@H]1[C@@H]2CC[C@]2(C)C(OS(=O)OC3CC[C@@H]4[C@H]5CCc6cc(O)c(OCC)cc6[C@@H]5CC[C@@]34C)CC[C@@H]12` (stereo not given in full), for which the GI50 was 0.583 µM (active) in [1]; 1.81 µM (inactive) in [2]; 2.45 µM (inactive) in assay [3]; 0.173 µM (active) in [4]; 22.6 µM (inactive) in assay [5]; 0.316 µM (active) in assay [6]. Moreover, the GI50 in assay [7] is 4.59 µM (inactive); in assay [8], 0.752 µM (active); in assay [9], 0.592 µM (active); in assay [10], 4.06 µM (inactive); in [11], 0.0601 µM (active); in assay [12], 1.14 µM (inactive). The GI50 in assay [13] was 0.168 µM (active); in assay [14], 0.441 µM (active); in [15] it was 0.313 µM (active); in [16], 2.44 µM (inactive); in assay [17] it was 0.982 µM (active); in assay [18], 0.92 µM (active). Further, the GI50 in assay [19] was 0.34 µM (active); in [20], 0.182 µM (active).
For the compound `CNC(=O)c1cc2nc3ccccc3c(=O)n2c2ccccc12`, the GI50 in [1], in assay [2], in [3], in assay [4], in assay [5] and in assay [6] was > 10 µM (inactive) each time. Also, the GI50 in assay [7], in assay [8], in [9], in [10], in [11] and in assay [12] was > 10 µM (inactive) in each case. The GI50 in assay [13], in [14], in assay [15], in assay [16], in assay [17] and in assay [18] was > 10 µM (inactive) throughout. Moreover, the GI50 in assay [19] and in assay [20] was > 10 µM (inactive) in each case.
As to `COC(=O)[C@@]12C(=O)C(C)C(=O)[C@]1(C)C(C)=C[C@H]1[C@]3(C=O)CC[C@H](OC(C)=O)C(C)(C)[C@H]3CC[C@@]12C` (stereo not given in full), the GI50 was > 100 µM (inactive) in [1]; > 100 µM (inactive) in assay [2]; 93.1 µM (inactive) in [3]; 17.7 µM (inactive) in assay [4]; > 100 µM (inactive) in assay [5]; 38.6 µM (inactive) in [6]. The GI50 in [7] was > 100 µM (inactive); in [8], 70.6 µM (inactive); in assay [9] it was > 100 µM (inactive); in [10] it was > 100 µM (inactive); in assay [11], 97.3 µM (inactive); in assay [12], 11.9 µM (inactive). For the same compound, the GI50 in [13], in [14], in [15], in assay [16], in assay [17] and in [18] was > 100 µM (inactive) throughout. Moreover, the results for the GI50 in assay [19] and in [20] were > 100 µM (inactive) and 7.48 µM (inactive), respectively.
